In ChEMBL document CHEMBL1130033, “17 beta-(3-furyl)-5 beta-androstane-3 beta, 14 beta, 17 alpha-triol (PST 2238). A very potent antihypertensive agent with a novel mechanism of action” (J Med Chem, 1997):

Biological target: Sodium/potassium-transporting ATPase
Test: Ability to displace [3H]ouabain from Na+/K+ ATPase in dog kidney.
Format: protein-complex assay, Canis lupus familiaris

C[C@]12CC[C@H](O)C[C@H]1CC[C@@H]1[C@@H]2CC[C@]2(C)[C@@](O)(c3ccoc3)CC[C@]12O [ROSTAFUROXIN]
IC50: 1500 nM
